The values that follow come from patent US9732050B2, “Modulators of sperm hypermotility and uses thereof” (HYDRA BIOSCIENCES, INC., priority 2005, dated 2017).

The test addresses T1, Mouse CatSper1 currents (Mus musculus, UniProt Q91ZR5).
T1 construct: Spermatozoa from corpus epididymis were used because the CD of such cells was less fragile; from tissue; host or cells: mouse spermatozoa from corpus epididymis
Nature of the test: Inhibition of mouse CatSper1 currents in electrophysiological recordings. In kind it is cell-based. As to the method: Compound (II) was tested for its effects on sperm hyperactivation using a single-sperm motility assay as described in Kirichok Y, Navarro B, Clapham D E. “Whole-cell patch-clamp measurements of spermatozoa reveal an alkaline-activated Ca2+ channel”. Nature. 2006; 439(7077):737-40. Mouse sperm was prepared as described in Kirichok.
The patch pipette was applied to the sperm cell cytoplasmic droplet (CD). Spermatozoa from corpus epididymis were used because the CD of such cells was less fragile. The most mature spermatozoa, those with the CD located next to the principal piece, were chosen for experiments. Pipette resistance with Cs-Methanesulfonate-based solutions was 6-13 MΩ. Access resistance in the whole-cell configuration was 25-120 MS). The pipette solution (in mM) was as follows: 140 Cs-Methanesulfonate, 5 NaCl, 10 HEPES, 10 EGTA, pH 7.2 (pH adjusted with CsOH).
Seals between the patch pipette and the cytoplasmic droplet were formed in HS bath solution (Kirichok Y, Navarro B, Clapham D E. Whole-cell patch-clamp measurements of spermatozoa reveal an alkaline-activated Ca2+ channel. Nature. 2006 Feb. 9; 439(7077):737-40). After break-in, the bath solution was changed to recording solution: 150 NaGluconate, 10 HEPES, 2Na3HEDTA and 2 EGTA, pH 7.4 (pH adjusted with NaOH). CaCl2 was added to the solution in accordance with the WinMAXC v2.05 program (C. Patton, Stanford University) to yield ˜[…] free [Ca2+].
A 20 micromolar solution of compound (II), i.e. 3,4-bis(2-thienylcarbonyl)-1,2,5-oxadiazole-2-ium-2-olate, was prepared from a 100 mM DMSO stock in the recording solution described above. Osmolarity of the solutions was approximately 303 mmol kg-1.
The membrane potential was held at 0 mV. Every 5 seconds CatSper currents were monitored by application of a voltage ramp from −100 mV to +100 mV over the course of 400 milliseconds. Following break-in, cells were monitored until a steady state level of CatSper current (plotted at +80 mV) was observed. […] Steady state block was monitored for 5-6 sweeps. […] Series resistance was monitored throughout the recordings.

Consider `O=C(c1cccs1)c1no[n+]([O-])c1C(=O)c1cccs1` [Compound (II), 3,4-bis(2-thienylcarbonyl)-1,2,5-oxadiazole-2-ium-2-olate], for which the “block of CatSper current” value (20 micromolar, current plotted at +80 mV, mouse spermatozoa from corpus epididymis) is on record as “steady state block was achieved”. The “sweeps until steady state block” value (20 micromolar, voltage ramp every 5 seconds) is reported as 2-3 sweeps. Moreover, the “CatSper current following removal of the compound” value (washout after 20 micromolar) is reported as “returned rapidly to unblocked levels”.
